{
  "source": "patent US20110015208A1",
  "about": "“PHARMACEUTICAL COMPOSITIONS CONTAINING DOPAMINE RECEPTOR LIGANDS AND METHODS OF TREATMENT USING DOPAMINE RECEPTOR LIGANDS” (priority 2007, published 2011)",
  "key": {"[1]": {"tested_on": "basal locomotor activity of mice", "experiment": "Open field, basal locomotor activity of mice (Example 4B)", "format": "in vivo, mouse", "settings": "test condition water", "protocol": "(§1) Cariprazine hydrochloride and escitalopram oxalate were evaluated for anti-manic effects using the amphetamine/chlordiazepoxide (AMPH/CDP) hyperactivity test.\n(§2) Male C57B1/6J mice (8 weeks old) from Jackson Laboratories (Bar Harbor, Me.) were used in this study. Upon receipt, mice were assigned unique identification numbers (tail marked) and were group housed (4 mice/cage) in OPTI mouse ventilated cages. All animals remained housed in groups of four during the remainder of the study. During the period of acclimation, mice were examined on a regular basis, handled, and weighed to assure adequate health and suitability. Mice were maintained on a 12/12 light/dark cycle. The room temperature was maintained between 20 and 23° C. with a relative humidity maintained between 30% and 70%. Chow and water were provided ad libitum for the duration of the study. In each test, animals were randomly assigned across treatment groups.\n(§3) Distance traveled is measured by consecutive beam breaks.\n(§4) Data was analyzed by analysis of variance (ANOVA) followed by Fisher PLSD post-hoc analysis when appropriate. An effect was considered significant if p<0.05. Outliers that fell above and below two standard deviations from the mean were removed from the final analysis."}, "[2]": {"tested_on": "d-amphetamine/chlordiazepoxide mixture (AMPH/CDP)-induced hyperactivity in mice", "experiment": "d-Amphetamine/chlordiazepoxide (AMPH/CDP) hyperactivity test (Example 4B)", "format": "in vivo, mouse", "settings": "for Total Distance Traveled [mean ± SEM]: test condition AMPH/CDP", "protocol": "as §1, §2\n(§5) d-Amphetamine sulfate (Sigma, 4.0 mg/kg) and chlordiazepoxide (CDP; Sigma, 2.5 mg/kg) were dissolved in sterile water and were administered intraperitoneally at a dose volume of 10 ml/kg.\nas §3, §4"}, "[3]": {"tested_on": "basal locomotor activity of mice", "experiment": "Open field, basal locomotor activity of mice (Example 4A)", "format": "in vivo, mouse", "settings": "for Total Distance Traveled [mean ± SEM]: test condition water, 60 min pretreatment", "protocol": "as §1\nas §2, with “C57B1/6J mice from Jackson” for “C57B1/6J mice (8 weeks old) from Jackson”, “this study. Mice were received at 6-weeks of age. Upon receipt,” for “this study. Upon receipt,”, “group housed with 4 mice/cage. All animals” for “group housed (4 mice/cage) in OPTI mouse ventilated cages. All animals”, “the study. All mice were acclimated to the colony room for at least two weeks prior to testing and were subsequently tested at an average age of 8 weeks of age. During the” for “the study. During the”\nas §3, §4"}, "[4]": {"tested_on": "d-amphetamine/chlordiazepoxide mixture (AMPH/CDP)-induced hyperactivity in mice", "experiment": "d-Amphetamine/chlordiazepoxide (AMPH/CDP) hyperactivity test (Example 4A)", "format": "in vivo, mouse", "settings": "for Total Distance Traveled [mean ± SEM]: test condition AMPH/CDP, 60 min pretreatment", "protocol": "as §1\nas §2, with “C57B1/6J mice from Jackson” for “C57B1/6J mice (8 weeks old) from Jackson”, “this study. Mice were received at 6-weeks of age. Upon receipt,” for “this study. Upon receipt,”, “group housed with 4 mice/cage. All animals” for “group housed (4 mice/cage) in OPTI mouse ventilated cages. All animals”, “the study. All mice were acclimated to the colony room for at least two weeks prior to testing and were subsequently tested at an average age of 8 weeks of age. During the” for “the study. During the”\nas §5, §3, §4"}, "[5]": {"tested_on": "extracellular serotonin (5-HT) in the frontal cortex", "experiment": "Dual-probe microdialysis, serotonin in frontal cortex of freely-moving rats", "format": "in vivo, rat", "protocol": "A dual-probe microdialysis study was conducted to determine the effects of oral administration of cariprazine hydrochloride, alone and in combination with escitalopram oxalate (administered subcutaneously), on extracellular concentrations of acetylcholine (ACh), dopamine (DA) and serotonin (5-HT) in the frontal cortex of freely-moving rats.\nExperiments were carried out in male Sprague Dawley rats (250-350 g body weight; Charles River, UK). Animals were housed in groups of six on a 12 h/12 h light/dark cycle (lights on at 07.30 h), at an ambient temperature of 21±2° C. and 55±20% humidity. Food and water were available ad libitum. Animals were allowed to acclimatise to these conditions for at least 5 days prior to the study.\nRats were anaesthetised with isoflurane (5% to induce, 2% to maintain) in an O2/N2O (1 litre/min each) mixture delivered via an anaesthetic unit (St Bernard Medical Services, UK). […] Samples were measured from the same side in each rat (e.g. left probe was used to measure ACh and right probe was used to measure DA and 5-HT). […]"}, "[6]": {"settings": "cariprazine HCl 0.03 mg/kg oral"}, "[7]": {"settings": "cariprazine HCl 0.10 mg/kg oral"}, "[8]": {"settings": "cariprazine hydrochloride 0.10 mg/kg oral"}, "[9]": {"settings": "escitalopram oxalate 0.10 mg/kg oral"}, "[10]": {"settings": "escitalopram oxalate 0.50 mg/kg oral"}},
  "note": "Where a name gives a salt, the structure may show the parent alone.",
  "data": [
    {"molecule": "CN(C)C(=O)N[C@H]1CC[C@H](CCN2CCN(c3cccc(Cl)c3Cl)CC2)CC1", "note": "[Cariprazine hydrochloride, trans-4-{2-[4-(2,3-dichlorophenyl)-piperazin-1-yl]-ethyl}-N,N-dimethylcarbamoyl-cyclohexylamine hydrochloride]", "values": [
      {"measurement": "Total Distance Traveled [mean ± SEM]", "setting": "[1]; [6]", "value": "4013 ± 343", "unit": "cm/60 min"},
      {"measurement": "Total Distance Traveled [mean ± SEM]", "setting": "[1]; [7]", "value": "2697 ± 259", "unit": "cm/60 min"},
      {"measurement": "effect on enhanced locomotor activity produced by the CDP+amphetamine mixture", "setting": "[2]; [8]", "value": "significantly attenuated"},
      {"measurement": "Total Distance Traveled [mean ± SEM]", "setting": "[2]; [6]", "value": "32628 ± 2510", "unit": "cm/60 min"},
      {"measurement": "Total Distance Traveled [mean ± SEM]", "setting": "[2]; [7]", "value": "22594 ± 2838", "unit": "cm/60 min"},
      {"measurement": "effect on basal locomotor activity compared to water", "setting": "[3]; [8]", "value": "trend toward a significant decrease"},
      {"measurement": "effect on basal activity compared to water", "setting": "[3]; cariprazine hydrochloride 0.30 mg/kg oral", "value": "significantly decreased"},
      {"measurement": "Total Distance Traveled [mean ± SEM]", "setting": "[3]; 0.03 mg/kg oral", "value": "4056 ± 427", "unit": "cm/60 min"},
      {"measurement": "Total Distance Traveled [mean ± SEM]", "setting": "[3]; 0.10 mg/kg oral", "value": "1726 ± 112", "unit": "cm/60 min"},
      {"measurement": "Total Distance Traveled [mean ± SEM]", "setting": "[3]; 0.30 mg/kg oral", "value": "917 ± 73", "unit": "cm/60 min"},
      {"measurement": "effect on mixture-induced hyperactivity", "setting": "[4]; cariprazine hydrochloride 0.10 and 0.30 mg/kg oral", "value": "significantly decreased"},
      {"measurement": "Total Distance Traveled [mean ± SEM]", "setting": "[4]; 0.03 mg/kg oral", "value": "32122 ± 2942", "unit": "cm/60 min"},
      {"measurement": "Total Distance Traveled [mean ± SEM]", "setting": "[4]; 0.10 mg/kg oral", "value": "13688 ± 2349", "unit": "cm/60 min"},
      {"measurement": "Total Distance Traveled [mean ± SEM]", "setting": "[4]; 0.30 mg/kg oral", "value": "2525 ± 204", "unit": "cm/60 min"},
      {"measurement": "efflux of 5-HT in the frontal cortex", "setting": "[5]; cariprazine hydrochloride alone 0.03, 0.1 and 0.3 mg/kg po", "value": "no significant effect"}
    ]},
    {"molecule": "CN(C)CCC[C@@]1(c2ccc(F)cc2)OCc2cc(C#N)ccc21", "note": "[Escitalopram oxalate, 1-[3-(dimethyl-amino)propyl]-1-(p-fluorophenyl)-5-phthalancarbonitrile]", "values": [
      {"measurement": "Total Distance Traveled [mean ± SEM]", "setting": "[1]; [9]", "value": "5551 ± 382", "unit": "cm/60 min"},
      {"measurement": "Total Distance Traveled [mean ± SEM]", "setting": "[1]; [10]", "value": "5238 ± 242", "unit": "cm/60 min"},
      {"measurement": "effect on mixture-induced locomotor activity", "setting": "[2]; escitalopram oxalate alone, either dose tested (0.10 and 0.50 mg/kg oral)", "value": "no significant effect"},
      {"measurement": "Total Distance Traveled [mean ± SEM]", "setting": "[2]; [9]", "value": "39700 ± 3477", "unit": "cm/60 min"},
      {"measurement": "Total Distance Traveled [mean ± SEM]", "setting": "[2]; [10]", "value": "40881 ± 3123", "unit": "cm/60 min"},
      {"measurement": "Total Distance Traveled [mean ± SEM]", "setting": "[3]; 0.50 mg/kg oral", "value": "4435 ± 389", "unit": "cm/60 min"},
      {"measurement": "Total Distance Traveled [mean ± SEM]", "setting": "[3]; 5.0 mg/kg oral", "value": "6499 ± 445", "unit": "cm/60 min"},
      {"measurement": "effect on mixture-induced hyperactivity", "setting": "[4]; escitalopram oxalate 0.5 mg/kg oral", "value": "trend toward a significant decrease"},
      {"measurement": "effect on mixture-induced hyperactivity", "setting": "[4]; escitalopram oxalate 5.0 mg/kg oral", "value": "increased"},
      {"measurement": "Total Distance Traveled [mean ± SEM]", "setting": "[4]; 0.50 mg/kg oral", "value": "30067 ± 1901", "unit": "cm/60 min"},
      {"measurement": "Total Distance Traveled [mean ± SEM]", "setting": "[4]; 2.0 mg/kg oral", "value": "36112 ± 1934", "unit": "cm/60 min"},
      {"measurement": "Total Distance Traveled [mean ± SEM]", "setting": "[4]; 5.0 mg/kg oral", "value": "39639 ± 1582", "unit": "cm/60 min"},
      {"measurement": "basal 5-HT levels", "setting": "[5]; escitalopram oxalate 1.0 mg/kg sc", "value": "no effect"}
    ]}
  ]
}
